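Values below derive from 48-hour exposures of cells grown in 96-well plates, with endpoints linearly interpolated between the two concentrations bracketing the appropriate inhibition level. Here, GI50 denotes the concentration required for 50% inhibition of growth. The concentration for full growth arrest is given as TGI.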
Test system: SF-295 CNS
Test: NCI anticancer screen, dose series, 48 h

| SMILES | TGI [µM] | GI50 [µM] |
| --- | --- | --- |
| CC1=CC(=O)N(n2c(C)n[nH]c2=O)C1=O | > 100 | – |
| CN1CCN(C(=S)N(C)C(=O)c2ccc(Cl)cc2)CC1 | > 100 | – |
| CC(=O)Nc1ccc(Cl)c(Cl)c1 | > 100 | – |
| COc1ccc2c(c1)C(=O)c1ccccc1C2 | > 100 | – |
| CCOC(=O)C1CC(O)C(=O)N1C (stereo unspecified) | > 100 | – |
| Cc1cc2cccc(Cl)c2nc1C(=O)c1ccccc1 | 51.9 | – |
| COc1ccc(CNc2nc3ccc(C(F)(F)F)cc3nc2-c2ccccc2)cc1OC | > 100 | – |
| CC(=O)CC(=O)c1cc2c(=O)oc(C)cc2oc1=O | > 37.5 | – |
| CCn1c(=O)c2c3cc(O)ccc3oc2c2ccc(O)cc21 | > 100 | – |
| N#Cc1c2c(c(Nc3ccc(F)cc3)n3c1nc1ccccc13)CCC2 | 18.7 | – |
| CCOC(=O)c1c(N)n(-c2ccccc2)c(=S)n(-c2ccccc2)c1=O | > 100 | – |
| COc1cccc(C2c3cc4c(cc3OC(N3CCCC3)C2C)OCO4)c1OC (stereo unspecified) | 12.4 | – |
| CC(C)=CC1C(C(=O)O)C1(C)C (stereo unspecified) | > 750 | – |
| COc1cccc(-c2nc(-c3cnccn3)n(Cc3ccccc3)n2)c1 | > 100 | – |
| COc1cc([C@@H]2c3cc4c(cc3C[C@H]3COC(=O)[C@@H]32)OCO4)cc(OC)c1OC | 0.00833 | 0.00296 |
| C[C@]12CC/C(=N\O)C=C1CC[C@@H]1[C@@H]2CC[C@]2(C)C(=N/O)/C(=C/c3cccnc3)C[C@@H]12 | 31.7 | – |
| C[C@@H]1C[C@H](O)[C@]2(O)O[C@@H]3C[C@@]4(C=O)[C@@H](CC=C5[C@@H]4CC[C@]4(C)[C@@H](C6=CC(=O)OC6)CC[C@]54O)C[C@H]3O[C@@H]2O1 | 0.627 | – |
| CC(C)(CO)N1C(=O)c2ccccc2C1(O)c1ccc(Cl)cc1 (stereo unspecified) | > 100 | – |
| C=CCCCC12CCCc3cccc(c31)NC2=O (stereo unspecified) | > 100 | – |
| O=c1nc2c(c(-c3cccc(Cl)c3)[nH]1)COC/C2=C\c1cccc(Cl)c1 | > 100 | – |
| CCOc1ccc(N=C/C=C(\Cl)c2ccc3ccccc3c2)cc1 | 36 | – |
| COC1C=CC23c4cc5c(cc4C(O)OC2CN(C)C3C1)OCO5 (stereo unspecified) | 9.59 | – |
| N#Cc1c(OCCF)c2ccccc2n2c1nc1ccccc12 | > 100 | – |

Test system: MALME-3M melanoma
Test: NCI anticancer screen, dose series, 48 h

| SMILES | TGI [µM] | GI50 [µM] |
| --- | --- | --- |
| COc1ccc(NC2Oc3cc4c(cc3C(c3cc(OC)c(OC)c(OC)c3)C2C)OCO4)cc1 (stereo unspecified) | > 100 | – |
| Cc1ccc(C2=Nc3c(c(C)nn3-c3ccccc3)N=C(C(=O)O)C2)cc1 | > 10 | – |
| CC1CC(C#N)=C2NCCCCN2C1=O (stereo unspecified) | > 100 | – |
| O=C(OCc1ccccc1)OOC(=O)OCc1ccccc1 | > 100 | – |
| Cc1ccc(C(=O)Nc2ccc(CP(=O)(O)O)cc2)cc1NC(=O)c1cccc(NC(=O)Nc2cccc(C(=O)Nc3cc(C(=O)Nc4ccc(CP(=O)(O)O)cc4)ccc3C)c2)c1 | > 100 | – |
| OCc1ccccc1C1CSCSC1 | > 100 | – |
| CC(C)c1c(P(=O)(c2ccccc2)c2ccccc2)n(C)c2ccccc12 | > 100 | – |
| CCN(CCCN(CC)C(=O)N[C@@H](Cc1ccccc1)C(=O)NC)C(=O)N[C@@H](Cc1ccccc1)C(=O)NC | > 100 | – |
| CCOP(=O)(OCC)/C(F)=C/c1ccccc1 | > 100 | – |
| c1ccc(N=c2snc(-c3ccccc3)s2)cc1 | > 100 | – |
| CC(C)/C(Cl)=N\OC(=O)NNc1ccccc1 | 38.3 | – |
| O=C(/C=C/c1cccs1)c1ccc(Cl)cc1 | > 100 | – |
| O=C(O)c1ccc(NS(=O)(=O)Cc2ccccc2)cc1 | > 100 | – |
| O=C1/C(=C/c2ccc(F)cc2)CNC/C1=C\c1ccc(F)cc1 | 13.2 | – |
| O=C1OC[C@@H]2Cc3c([nH]c4ccccc34)[C@@H](c3ccc(O)cc3)N12 | 85.1 | – |
| CCN(CC)CCCn1c(=O)c2cccnc2n2c3c(=O)n(C)c(=O)n(C)c3nc12 | > 100 | – |
| CN(C)c1ccc(/C(Br)=C2\OC(=O)c3ccccc32)cc1 | > 100 | – |
| CC1=C2c3ccccc3N(C(=O)/C=C/C(=O)O)[C@H]2[C@H]2C(=O)OC(=O)[C@H]2C1 | > 10 | – |
| CC1=CC(=O)N(n2c(C)n[nH]c2=O)C1=O | > 100 | – |

| SMILES | TGI [µM] | GI50 [µM] |
| --- | --- | --- |
| CN1CCN(C(=S)N(C)C(=O)c2ccc(Cl)cc2)CC1 | > 100 | – |
| CC(=O)Nc1ccc(Cl)c(Cl)c1 | > 100 | – |
| Cc1cc2cccc(Cl)c2nc1C(=O)c1ccccc1 | > 100 | – |
| COc1ccc(CNc2nc3ccc(C(F)(F)F)cc3nc2-c2ccccc2)cc1OC | > 100 | – |
| CC(=O)CC(=O)c1cc2c(=O)oc(C)cc2oc1=O | > 37.5 | – |
| CCn1c(=O)c2c3cc(O)ccc3oc2c2ccc(O)cc21 | > 100 | – |
| N#Cc1c2c(c(Nc3ccc(F)cc3)n3c1nc1ccccc13)CCC2 | 19.9 | – |
| CCOC(=O)c1c(N)n(-c2ccccc2)c(=S)n(-c2ccccc2)c1=O | > 100 | – |
| COc1cc2c(cc1OC)C(=O)/C(=C/c1cc(C)c(O)c(C)c1)C2 | 40.1 | – |
| CC(C)=CC1C(C(=O)O)C1(C)C (stereo unspecified) | > 750 | – |
| COc1cc([C@@H]2c3cc4c(cc3C[C@H]3COC(=O)[C@@H]32)OCO4)cc(OC)c1OC | > 50 | 0.00681 |
| C[C@]12CC/C(=N\O)C=C1CC[C@@H]1[C@@H]2CC[C@]2(C)C(=N/O)/C(=C/c3cccnc3)C[C@@H]12 | 72.3 | – |
| C[C@@H]1C[C@H](O)[C@]2(O)O[C@@H]3C[C@@]4(C=O)[C@@H](CC=C5[C@@H]4CC[C@]4(C)[C@@H](C6=CC(=O)OC6)CC[C@]54O)C[C@H]3O[C@@H]2O1 | 0.0532 | – |
| CC(C)(CO)N1C(=O)c2ccccc2C1(O)c1ccc(Cl)cc1 (stereo unspecified) | > 100 | – |
| C=CCCCC12CCCc3cccc(c31)NC2=O (stereo unspecified) | 30.2 | – |
| CCOc1ccc(N=C/C=C(\Cl)c2ccc3ccccc3c2)cc1 | 30.6 | – |
| COC1C=CC23c4cc5c(cc4C(O)OC2CN(C)C3C1)OCO5 (stereo unspecified) | 6.49 | – |
| Cc1cccc(N(CCC#N)S(=O)(=O)c2ccccc2)c1 | > 100 | – |

Test system: K-562 leukemia
Test: NCI anticancer screen, dose series, 48 h

| SMILES | TGI [µM] | GI50 [µM] |
| --- | --- | --- |
| COc1ccc(NC2Oc3cc4c(cc3C(c3cc(OC)c(OC)c(OC)c3)C2C)OCO4)cc1 (stereo unspecified) | > 100 | – |
| Cc1ccc(C2=Nc3c(c(C)nn3-c3ccccc3)N=C(C(=O)O)C2)cc1 | > 10 | – |
| CC1CC(C#N)=C2NCCCCN2C1=O (stereo unspecified) | > 100 | – |
| O=C(OCc1ccccc1)OOC(=O)OCc1ccccc1 | > 100 | – |
| Cc1ccc(C(=O)Nc2ccc(CP(=O)(O)O)cc2)cc1NC(=O)c1cccc(NC(=O)Nc2cccc(C(=O)Nc3cc(C(=O)Nc4ccc(CP(=O)(O)O)cc4)ccc3C)c2)c1 | > 100 | – |
| CN(O)C(=O)Cc1ccc(OCc2cccc(Cl)c2)cc1 | > 100 | – |
| OCc1ccccc1C1CSCSC1 | > 100 | – |
| CC(C)c1c(P(=O)(c2ccccc2)c2ccccc2)n(C)c2ccccc12 | > 100 | – |
| CCOP(=O)(OCC)/C(F)=C/c1ccccc1 | > 100 | – |
| c1ccc(N=c2snc(-c3ccccc3)s2)cc1 | > 100 | – |
| O=C(O)c1ccc(NS(=O)(=O)Cc2ccccc2)cc1 | > 100 | – |
| O=C1OC[C@@H]2Cc3c([nH]c4ccccc34)[C@@H](c3ccc(O)cc3)N12 | > 75.2 | – |
| Cc1oc2nc(N(C)C)n3nnnc3c2c1C | > 100 | – |
| CCN(CC)CCCn1c(=O)c2cccnc2n2c3c(=O)n(C)c(=O)n(C)c3nc12 | > 100 | – |
| CN(C)c1ccc(/C(Br)=C2\OC(=O)c3ccccc32)cc1 | > 100 | – |
| CC1=CC(=O)N(n2c(C)n[nH]c2=O)C1=O | > 100 | – |
| CN1CCN(C(=S)N(C)C(=O)c2ccc(Cl)cc2)CC1 | > 100 | – |
| CC(=O)Nc1ccc(Cl)c(Cl)c1 | > 100 | – |
| COc1ccc2c(c1)C(=O)c1ccccc1C2 | > 100 | – |

| SMILES | TGI [µM] | GI50 [µM] |
| --- | --- | --- |
| Cc1cc2cccc(Cl)c2nc1C(=O)c1ccccc1 | > 100 | – |
| CC(=O)CC(=O)c1cc2c(=O)oc(C)cc2oc1=O | > 37.5 | – |
| CCn1c(=O)c2c3cc(O)ccc3oc2c2ccc(O)cc21 | > 100 | – |
| N#Cc1c2c(c(Nc3ccc(F)cc3)n3c1nc1ccccc13)CCC2 | > 100 | – |
| CCOC(=O)c1c(N)n(-c2ccccc2)c(=S)n(-c2ccccc2)c1=O | > 100 | – |
| COc1cccc(C2c3cc4c(cc3OC(N3CCCC3)C2C)OCO4)c1OC (stereo unspecified) | 30.5 | – |
| COc1cc2c(cc1OC)C(=O)/C(=C/c1cc(C)c(O)c(C)c1)C2 | > 100 | – |
| CC(C)=CC1C(C(=O)O)C1(C)C (stereo unspecified) | > 750 | – |
| COc1cccc(-c2nc(-c3cnccn3)n(Cc3ccccc3)n2)c1 | > 100 | – |
| COc1cc([C@@H]2c3cc4c(cc3C[C@H]3COC(=O)[C@@H]32)OCO4)cc(OC)c1OC | 21.9 | 0.00404 |
| C[C@]12CC/C(=N\O)C=C1CC[C@@H]1[C@@H]2CC[C@]2(C)C(=N/O)/C(=C/c3cccnc3)C[C@@H]12 | 27.7 | – |
| C[C@@H]1C[C@H](O)[C@]2(O)O[C@@H]3C[C@@]4(C=O)[C@@H](CC=C5[C@@H]4CC[C@]4(C)[C@@H](C6=CC(=O)OC6)CC[C@]54O)C[C@H]3O[C@@H]2O1 | > 100 | – |
| CC(C)(CO)N1C(=O)c2ccccc2C1(O)c1ccc(Cl)cc1 (stereo unspecified) | > 100 | – |
| C=CCCCC12CCCc3cccc(c31)NC2=O (stereo unspecified) | 78.3 | – |
| O=c1nc2c(c(-c3cccc(Cl)c3)[nH]1)COC/C2=C\c1cccc(Cl)c1 | > 100 | – |
| CCOc1ccc(N=C/C=C(\Cl)c2ccc3ccccc3c2)cc1 | 23.7 | – |
| COC1C=CC23c4cc5c(cc4C(O)OC2CN(C)C3C1)OCO5 (stereo unspecified) | 14.3 | – |
| N#Cc1c(OCCF)c2ccccc2n2c1nc1ccccc12 | > 100 | – |
| Cc1cccc(N(CCC#N)S(=O)(=O)c2ccccc2)c1 | > 100 | – |

Test system: PC-3 prostate
Test: NCI anticancer screen, dose series, 48 h

| SMILES | TGI [µM] |
| --- | --- |
| COc1ccc(NC2Oc3cc4c(cc3C(c3cc(OC)c(OC)c(OC)c3)C2C)OCO4)cc1 (stereo unspecified) | > 100 |
| Cc1ccc(C2=Nc3c(c(C)nn3-c3ccccc3)N=C(C(=O)O)C2)cc1 | > 10 |
| CC1CC(C#N)=C2NCCCCN2C1=O (stereo unspecified) | > 100 |
| Cc1ccc(C(=O)Nc2ccc(CP(=O)(O)O)cc2)cc1NC(=O)c1cccc(NC(=O)Nc2cccc(C(=O)Nc3cc(C(=O)Nc4ccc(CP(=O)(O)O)cc4)ccc3C)c2)c1 | > 100 |
| CN(O)C(=O)Cc1ccc(OCc2cccc(Cl)c2)cc1 | > 100 |

From PubChem BioAssay (NCI)
